The results in this text go back to PubChem BioAssay (NCI).

Among the test systems are HCT-116 colon; SK-MEL-5 melanoma; SNB-75 CNS; K-562 leukemia; UACC-62 melanoma; HCT-15 colon; 786-0 renal; NCI/ADR-RES ovarian; MDA-MB-231 breast; DU-145 prostate.
What all share (experiment): NCI tumour cell line growth inhibition, 48 h

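96-well plates; 48 h exposure; 5 concentrations. Endpoints by linear interpolation between flanking doses. Not reached: highest tested concentration assigned. Here, GI50 denotes the concentration required for 50% inhibition of growth. At the TGI there is no net growth.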 Some results are limits rather than exact numbers.

`Cc1ccc(Sc2cc([N+](=O)[O-])cc(Sc3ccc(C)cc3)c2Sc2ccc(C)cc2)cc1`: the TGI with HCT-116 colon, with SK-MEL-5 melanoma, with SNB-75 CNS, with K-562 leukemia, with UACC-62 melanoma and in the assay with HCT-15 colon was greater than 100 µM in each case. Also, the TGI with 786-0 renal was greater than 100 µM.

Take `O=C1OC(=O)C2C1C1(c3ccccc3)OC2(c2ccccc2)c2c(Br)c(Br)c(Br)c(Br)c21` (stereo unspecified): the TGI with HCT-116 colon, with SK-MEL-5 melanoma, in the assay on SNB-75 CNS, with K-562 leukemia, with UACC-62 melanoma and with HCT-15 colon was greater than 100 µM throughout. In the assay with 786-0 renal, this molecule displayed a TGI greater than 100 µM.

As for `CCCCCCCCCCCCCCCc1nc(SCC(=O)O)n[nH]1`, the TGI is greater than 100 µM with HCT-116 colon; greater than 100 µM in the assay on SK-MEL-5 melanoma; greater than 100 µM in the assay on K-562 leukemia; greater than 100 µM with UACC-62 melanoma; greater than 100 µM in the assay with HCT-15 colon; 42.1 µM with 786-0 renal.

As for `Clc1ccc2c(NCCCNCc3ccc4c(c3)OCO4)ccnc2c1`, the GI50 in the assay on HCT-116 colon is 2.03 µM; with SK-MEL-5 melanoma, 1.74 µM; in the assay on NCI/ADR-RES ovarian, 4 µM; in the assay on SNB-75 CNS it was 1.52 µM; with K-562 leukemia, 2.19 µM; in the assay on MDA-MB-231 breast, 1.72 µM. Further, the GI50 in the assay on UACC-62 melanoma was 2.02 µM; with HCT-15 colon it was 2.42 µM; in the assay with 786-0 renal, 2.88 µM. The TGI is 8.82 µM in the assay with HCT-116 colon; 3.13 µM in the assay with SK-MEL-5 melanoma; 18.4 µM with NCI/ADR-RES ovarian; 3.37 µM in the assay with SNB-75 CNS; 7.63 µM with K-562 leukemia; 5.78 µM in the assay with MDA-MB-231 breast. In addition, the figures for the TGI with UACC-62 melanoma, in the assay on HCT-15 colon and in the assay with 786-0 renal were 3.89 µM, 7.85 µM and 12 µM, respectively.

Turning to `CC(=O)NC1C(OCc2ccccc2)OC(COC(=O)CCCCCCCCCCNC(=O)CCNc2ccc([N+](=O)[O-])c3[nH]c4ccc(O)cc4c(=O)c23)C(O)C1OC(C)C(=O)N[C@H](C(=O)N[C@H](CCC(=O)O)C(N)=O)C(C)C` (stereo partly specified), the TGI in the assay on HCT-116 colon was greater than 100 µM; with SK-MEL-5 melanoma, greater than 100 µM; in the assay with SNB-75 CNS, 64.8 µM; in the assay on K-562 leukemia, greater than 100 µM; in the assay with UACC-62 melanoma, greater than 100 µM; in the assay with HCT-15 colon it was greater than 100 µM. Moreover, the TGI in the assay on 786-0 renal is greater than 100 µM.

As to `COc1cc2c(cc1OC)-c1c(c3ccc([N+](=O)[O-])cc3c(=O)n1CCCBr)C2=O`, the GI50 in the assay on HCT-116 colon was 4.31 µM; in the assay on SK-MEL-5 melanoma, 1.72 µM; in the assay on NCI/ADR-RES ovarian it was 5.91 µM; with DU-145 prostate it was 24.5 µM; with K-562 leukemia, 5.2 µM; with MDA-MB-231 breast, 96.4 µM. The GI50 is 2.83 µM in the assay on UACC-62 melanoma, 61.8 µM in the assay with HCT-15 colon and 2.93 µM in the assay on 786-0 renal. Besides, the TGI in the assay on HCT-116 colon was greater than 100 µM; with SK-MEL-5 melanoma, 23.7 µM; in the assay with NCI/ADR-RES ovarian it was greater than 100 µM; with DU-145 prostate, greater than 100 µM; in the assay with K-562 leukemia, greater than 100 µM; with MDA-MB-231 breast, greater than 100 µM. For the same molecule, the figures for the TGI in the assay with UACC-62 melanoma, with HCT-15 colon and in the assay with 786-0 renal were 75.4 µM, greater than 100 µM and greater than 100 µM, respectively.

Turning to `NC1=C(O)/C(=N/NS(=O)(=O)c2ccccc2)C(c2cccc(Cl)c2)O1` (stereo unspecified), the TGI with HCT-116 colon was 53.6 µM; with SK-MEL-5 melanoma, greater than 100 µM; in the assay on SNB-75 CNS it was greater than 80.4 µM; in the assay with DU-145 prostate, greater than 100 µM; with K-562 leukemia, 27.9 µM; with MDA-MB-231 breast it was 37.6 µM. For the same molecule, the TGI in the assay with UACC-62 melanoma was determined as 66.7 µM; with HCT-15 colon it was 27 µM; in the assay on 786-0 renal it was 68.5 µM.

As to `O=c1c2ccc(Br)cc2nc(-c2ccccc2)n1NC1OC(CO)C(O)C(O)C1O` (stereo unspecified), the TGI with HCT-116 colon, with SK-MEL-5 melanoma, in the assay on SNB-75 CNS, in the assay on K-562 leukemia, in the assay on UACC-62 melanoma and in the assay with HCT-15 colon was greater than 100 µM throughout. Moreover, the TGI in the assay with 786-0 renal was greater than 100 µM.

As for `Cn1c(=O)c2nc3sc4ccccc4c(=N)n3c2n(C)c1=O`, the TGI with SK-MEL-5 melanoma, in the assay with K-562 leukemia, with UACC-62 melanoma and in the assay on 786-0 renal was greater than 100 µM each time.

Regarding `COc1ccc(/C=C\c2cc(OC)c(OC(C)=O)c(OC)c2)cc1`, the TGI was greater than 100 µM in the assay on HCT-116 colon; 20.5 µM in the assay on SK-MEL-5 melanoma; 15 µM in the assay on SNB-75 CNS; 31 µM in the assay on K-562 leukemia; 33.5 µM with UACC-62 melanoma; 97 µM in the assay on HCT-15 colon. This molecule registered a TGI in the assay with 786-0 renal greater than 100 µM.

In the case of `COc1ccc2c(c1)[n+](=O)c(C(=O)C/C(=N\NC(=O)C[N+](C)(C)C)C(=O)Nc1cc(Cl)ccc1Cl)c(C)n2O`, the TGI with HCT-116 colon, in the assay on SK-MEL-5 melanoma, with SNB-75 CNS, in the assay on K-562 leukemia, in the assay on UACC-62 melanoma and in the assay with HCT-15 colon was greater than 100 µM throughout. Also, the TGI in the assay on 786-0 renal was greater than 100 µM.

`COc1ccccc1NC(=O)C(=O)C(C#N)CC(C)(C)C=O` (stereo unspecified): the TGI in the assay on HCT-116 colon, in the assay with SK-MEL-5 melanoma, in the assay on NCI/ADR-RES ovarian, with SNB-75 CNS, in the assay on K-562 leukemia and with MDA-MB-231 breast was greater than 100 µM in each case. Also, the TGI in the assay on UACC-62 melanoma, in the assay on HCT-15 colon and with 786-0 renal was greater than 100 µM in each case.

In the case of `COc1cccc(/C=N/[N-]C(N)=O)c1[O-].[Cu+2].c1ccncc1`, the TGI was 32 µM in the assay on HCT-116 colon; 37.2 µM with SK-MEL-5 melanoma; 33.4 µM in the assay with SNB-75 CNS; 58.5 µM in the assay on K-562 leukemia; 41.1 µM in the assay with UACC-62 melanoma; greater than 100 µM in the assay with HCT-15 colon. The molecule also showed a TGI in the assay on 786-0 renal of 24 µM.

Take `O=C(c1ccccc1)C(c1ccccc1)C1(O)C(=O)Nc2ccc(Br)cc21` (stereo unspecified): the TGI is greater than 100 µM in the assay with HCT-116 colon; greater than 100 µM with SNB-75 CNS; 80.8 µM with K-562 leukemia; 39.2 µM in the assay on UACC-62 melanoma; greater than 100 µM with HCT-15 colon; greater than 100 µM in the assay with 786-0 renal.

In the case of `Cn1c(=O)ccc2cc(C(=O)c3ccccc3)ccc21`, the TGI in the assay with HCT-116 colon is greater than 100 µM; with SK-MEL-5 melanoma, 55.7 µM; in the assay on SNB-75 CNS, 54.3 µM; in the assay on K-562 leukemia it was greater than 100 µM; in the assay on UACC-62 melanoma, 50.5 µM; in the assay on HCT-15 colon, greater than 100 µM. The same molecule yielded a TGI in the assay with 786-0 renal greater than 100 µM.
